Where two headings read alike, the source gives them in different places.
Key:
[1] = tested on: human pancreatic cancer PANC1 cells; assay: Anti-proliferation assay (Alamar Blue metabolism), PANC1 cells; format: cell-based; details: PANC1 cells
Text: (§1) The combination matrices were used immediately and discarded.

[2] = tested on: human prostate cancer DU145 cells; assay: Anti-proliferation assay (Alamar Blue metabolism), DU145 cells; format: cell-based; details: Homo sapiens, DU-145, DU145 cells
Text: as §1

[3] = tested on: human melanoma SKMEL-28 cells; assay: Anti-proliferation assay (Alamar Blue metabolism), SKMEL-28 cells; format: cell-based
Text: as §1

[4] = tested on: human colorectal carcinoma HCT116 cells; assay: Anti-proliferation assay (Alamar Blue metabolism), HCT116 cells;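 note: cells in 384-well plates exposed to compound combination matrices for 72 h, Alamar Blue fluorescence read (excitation 530 nm), inhibition calculated against mean of vehicle-only wells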
Method: Stock solutions (1000×) of each compound were prepared in DMSO and stored at −20° C. Master stock plates of 2-fold or 4-fold serial dilutions of individual compounds were prepared in 384-well plates. Combination matrices of test compounds were generated from these master stock plates by dilution into growth media described above. […] The combination matrices were used immediately and discarded.
The anti-proliferation assays were performed in 384-well plates. […] Cells were diluted in culture media such that 3,000 SKMEL-28 cells, or 1,500 cells for all the other cell lines, were delivered in 35 μl of media into each assay well. Assay plates were incubated for 16-24 hours 37° C.±0.5° C. with 5% CO2. After incubation, 4.5 μl of 10× stock solutions from the combination matrices were added to 40 μl of culture media. Assay plates were further incubated for 72 hours at 37° C.±0.5° C. with 5% CO2. […] Alamar Blue metabolism was quantified by the amount of fluorescence intensity 3.5-5.0 hours after addition. Quantification, using an LJL Analyst AD reader (LJL Biosystems), was taken in the middle of the well with high attenuation, a 100 msec read time, an excitation filter at 530 nm, and an emission filter at 575 nm. For some experiments, quantification was performed using a Wallac Victor^2 reader. Measurements were taken at the top of the well with stabilized energy lamp control; a 100 msec read time, an excitation filter at 530 nm, and an emission filter at 590 nm.

[5] = tested on: non-small cell lung carcinoma A549 cells; assay: Anti-proliferation assay (Alamar Blue metabolism), A549 cells; format: cell-based; details: A549 cells
Method: Inhibition of proliferation was measured by anti-proliferation assay as described below after incubation with the test compound(s) for 72 hours.
as §1
Cells were diluted in culture media such that 3,000 SKMEL-28 cells, or 1,500 cells for all the other cell lines, were delivered in 35 μl of media into each assay well. Assay plates were incubated for 16-24 hours 37° C.±0.5° C. with 5% CO2. […] Assay plates were further incubated for 72 hours at 37° C.±0.5° C. with 5% CO2. […] Alamar Blue metabolism was quantified by the amount of fluorescence intensity 3.5-5.0 hours after addition.
The percent inhibition (% I) for each well was calculated using the following formula: % I=[(avg. untreated wells−treated well)/(avg. untreated wells)]×100 The average untreated well value (avg. untreated wells) is the arithmetic mean of 40 wells from the same assay plate treated with vehicle alone.

[6] = Homo sapiens, HCT-116, read-out: Percent inhibition of Alamar Blue Metabolism, lovastatin […], econazole 0.0 μM
[7] = Homo sapiens, HCT-116, read-out: Percent inhibition of Alamar Blue Metabolism, tioconazole 0.0 μM, lovastatin […]
[8] = Homo sapiens, HCT-116, read-out: Percent inhibition of Alamar Blue Metabolism, tioconazole […], lovastatin 0.0 μM
[9] = Homo sapiens, HCT-116, read-out: Percent inhibition of Alamar Blue Metabolism, lovastatin 0.0 μM, econazole […]
[10] = with addition of 7 μM itraconazole

CC(C)n1c(/C=C/C(O)CC(O)CC(=O)O)c(-c2ccc(F)cc2)c2ccccc21 (stereo not shown) [Fluvastatin, fluvastatin]
inhibition at 12 µM ([1]; Homo sapiens, PANC-1, 12 μM fluvastatin + 7 μM itraconazole): 56.8% | inhibition at 49 µM ([1]; Homo sapiens, PANC-1, fluvastatin 49 μM alone, read-out: maximal inhibition): 59.9% | inhibition at 12 µM ([2]; 12 μM fluvastatin + 14 μM itraconazole): 40.3% | inhibition at 12 µM ([2]; 12 μM fluvastatin, absence of itraconazole): 15.5% | inhibition at 49 µM ([2]; fluvastatin 49 μM alone, read-out: maximal inhibition): 58.3% | inhibition at 3 µM ([3]; Homo sapiens, SK-MEL-28, SKMEL-28 cells, 3 μM fluvastatin + 7 μM itraconazole): 59.5% | inhibition at 49 µM ([3]; Homo sapiens, SK-MEL-28, SKMEL-28 cells, fluvastatin 49 μM alone, read-out: maximal inhibition): 27.8% | reduction in the concentration of fluvastatin ([3]; SKMEL-28 cells, 3 μM with 7 μM itraconazole vs 49 μM alone): 16 fold | Percent inhibition of Alamar Blue Metabolism in SKMEL-28 cells ([3]; Table 13: itraconazole 0.87 μM + fluvastatin at row conc. c1 (0-49 μM), 72 h): 35.4% | reduction in the concentration of fluvastatin ([4]; HCT116 cells, […] with 7 μM itraconazole vs 49 μM alone): 8 fold | inhibition at […] ([4]; Homo sapiens, HCT-116, HCT116 cells, […] fluvastatin + 7 μM itraconazole): 91.9% | inhibition at 49 µM ([4]; Homo sapiens, HCT-116, read-out: maximal inhibition, HCT116 cells, fluvastatin 49 μM alone): 93.1%

COCc1c(C(C)C)nc(C(C)C)c(/C=C/[C@@H](O)C[C@@H](O)CC(=O)O)c1-c1ccc(F)cc1 [cerivastatin]
reduction in the concentration of cerivastatin ([4]; HCT116 cells, […] with […] itraconazole vs 22 μM alone): 8 fold | inhibition at 22 µM ([4]; Homo sapiens, HCT-116, read-out: Percent inhibition of Alamar Blue Metabolism, cerivastatin 22 μM, itraconazole 0 μM): 85.5% | inhibition at 22 µM ([4]; Homo sapiens, HCT-116, read-out: maximal inhibition, HCT116 cells, cerivastatin 22 μM alone): 85.5%

CC[C@H](C)C(=O)O[C@H]1C[C@@H](C)C=C2C=C[C@H](C)[C@H](CC[C@@H]3C[C@@H](O)CC(=O)O3)[C@H]21 [Lovastatin, lovastatin]
reduction in the concentration of lovastatin ([4]; HCT116 cells, 6 μM with […] itraconazole vs 48 μM alone): 8 fold | inhibition at 6 µM ([4]; Homo sapiens, HCT-116, HCT116 cells, 6.0 μM lovastatin + 9.0 μM tioconazole): 70.1% | inhibition at 6 µM ([4]; Homo sapiens, HCT-116, HCT116 cells, 6 μM lovastatin + […] itraconazole): 83.4% | inhibition at 18 µM ([4]; Homo sapiens, HCT-116, HCT116 cells, 18 μM lovastatin + […] econazole): 84.5% | inhibition at 0.3 µM ([4]; Homo sapiens, HCT-116, read-out: Percent inhibition of Alamar Blue Metabolism, lovastatin 0.3 μM, econazole 0.0 μM): 10.5% | inhibition at 0.6 µM ([4]; Homo sapiens, HCT-116, read-out: Percent inhibition of Alamar Blue Metabolism, lovastatin 0.6 μM, econazole 0.0 μM): 5.4% | inhibition at 9 µM ([4]; Homo sapiens, HCT-116, read-out: Percent inhibition of Alamar Blue Metabolism, lovastatin 9.0 μM, econazole 0.0 μM): 27.3% | inhibition at 18 µM [4, 6]: 41.3% | inhibition at 36 µM [4, 6]: 95.6% | inhibition at 0.2 µM ([4]; Homo sapiens, HCT-116, read-out: Percent inhibition of Alamar Blue Metabolism, tioconazole 0.0 μM, lovastatin 0.2 μM): 9.8% | inhibition at 0.4 µM ([4]; Homo sapiens, HCT-116, read-out: Percent inhibition of Alamar Blue Metabolism, tioconazole 0.0 μM, lovastatin 0.4 μM): 23.1% | inhibition at 0.8 µM ([4]; Homo sapiens, HCT-116, read-out: Percent inhibition of Alamar Blue Metabolism, tioconazole 0.0 μM, lovastatin 0.8 μM): 12.3% | inhibition at 3 µM ([4]; Homo sapiens, HCT-116, read-out: Percent inhibition of Alamar Blue Metabolism, tioconazole 0.0 μM, lovastatin 3.0 μM): 29.9% | inhibition at 6 µM ([4]; Homo sapiens, HCT-116, read-out: Percent inhibition of Alamar Blue Metabolism, tioconazole 0.0 μM, lovastatin 6.0 μM): 46.1% | inhibition at 12 µM [4, 7]: 50% | inhibition at 24 µM [4, 7]: 61.9% | inhibition at […] [4, 7]: 32.2% | inhibition at 24 µM ([4]; Homo sapiens, HCT-116, read-out: maximal inhibition, HCT116 cells, lovastatin 24 μM alone (Example 22)): 61.9% | inhibition at 36 µM ([4]; Homo sapiens, HCT-116, read-out: maximal inhibition, HCT116 cells, lovastatin 36 μM alone (Example 20)): 95.6% | inhibition at 48 µM ([4]; Homo sapiens, HCT-116, read-out: maximal inhibition, HCT116 cells, lovastatin 48 μM alone (Example 14)): 55% | Percent inhibition of Alamar Blue Metabolism in HCT116 cells ([4]; Table 14: itraconazole 14 μM + lovastatin at row conc. c1 (0-48 μM), 72 h): 88.9%

Clc1ccc(C(Cn2ccnc2)OCc2ccsc2Cl)c(Cl)c1 (stereo not shown) [tioconazole]
inhibition at 0.3 µM ([4]; Homo sapiens, HCT-116, read-out: Percent inhibition of Alamar Blue Metabolism, tioconazole 0.3 μM, lovastatin 0.0 μM): 8.6% | inhibition at 0.6 µM ([4]; Homo sapiens, HCT-116, read-out: Percent inhibition of Alamar Blue Metabolism, tioconazole 0.6 μM, lovastatin 0.0 μM): 3.7% | inhibition at 9 µM ([4]; Homo sapiens, HCT-116, read-out: Percent inhibition of Alamar Blue Metabolism, tioconazole 9.0 μM, lovastatin 0.0 μM): 19.8% | inhibition at 18 µM [4, 8]: 26.8% | inhibition at 36 µM [4, 8]: 41.3%

Clc1ccccc1C(c1ccccc1)(c1ccccc1)n1ccnc1 [clotrimazole]
inhibition at 0.5 µM ([4]; Homo sapiens, HCT-116, read-out: Percent inhibition of Alamar Blue Metabolism, atorvastatin 0.0 μM, clotrimazole 0.5 μM): 25.9% | inhibition at 0.9 µM ([4]; Homo sapiens, HCT-116, read-out: Percent inhibition of Alamar Blue Metabolism, atorvastatin 0.0 μM, clotrimazole 0.9 μM): 35.8%

Clc1ccc(COC(Cn2ccnc2)c2ccc(Cl)cc2Cl)cc1 (stereo not shown) [econazole]
inhibition at 0.4 µM ([4]; Homo sapiens, HCT-116, read-out: Percent inhibition of Alamar Blue Metabolism, atorvastatin 0.0 μM, econazole 0.4 μM): 0.7% | inhibition at 0.7 µM ([4]; Homo sapiens, HCT-116, read-out: Percent inhibition of Alamar Blue Metabolism, atorvastatin 0.0 μM, econazole 0.7 μM): -1.7% | inhibition at 2.8 µM ([4]; Homo sapiens, HCT-116, read-out: Percent inhibition of Alamar Blue Metabolism, atorvastatin 0.0 μM, econazole 2.8 μM): 1.6% | inhibition at 0.4 µM ([4]; Homo sapiens, HCT-116, read-out: Percent inhibition of Alamar Blue Metabolism, lovastatin 0.0 μM, econazole 0.4 μM): 0.6% | inhibition at 0.8 µM ([4]; Homo sapiens, HCT-116, read-out: Percent inhibition of Alamar Blue Metabolism, lovastatin 0.0 μM, econazole 0.8 μM): 8.8% | inhibition at 3 µM ([4]; Homo sapiens, HCT-116, read-out: Percent inhibition of Alamar Blue Metabolism, lovastatin 0.0 μM, econazole 3.0 μM): 23.9% | inhibition at 6 µM ([4]; Homo sapiens, HCT-116, read-out: Percent inhibition of Alamar Blue Metabolism, lovastatin 0.0 μM, econazole 6.0 μM): 36.7% | inhibition at 48 µM ([4]; Homo sapiens, HCT-116, read-out: Percent inhibition of Alamar Blue Metabolism, lovastatin 0.0 μM, econazole 48.0 μM): 96.1% | inhibition at 12 µM [4, 9]: 57.2% | inhibition at 24 µM [4, 9]: 78.6% | inhibition at […] [4, 9]: 14.9% | inhibition at 36 µM ([4]; Homo sapiens, HCT-116, read-out: maximal inhibition, HCT116 cells, 36 μM alone (Example 18)): 83.1%

CC[C@H](C)C(=O)O[C@H]1C[C@@H](C)C=C2C=C[C@H](C)[C@H](CCC(O)C[C@@H](O)CC(=O)O)[C@H]21 (stereo partly shown) [lovastatin sodium]
reduction in the concentration of lovastatin ([4]; HCT116 cells, 2.8 μM with 7 μM itraconazole vs 22 μM alone): 8 fold | inhibition at 2.8 µM ([4]; Homo sapiens, HCT-116, HCT116 cells, 2.8 μM lovastatin sodium + 7 μM itraconazole): 82% | inhibition at 22 µM ([4]; Homo sapiens, HCT-116, read-out: maximal inhibition, HCT116 cells, lovastatin sodium 22 μM alone): 58.9%

CCC(C)(C)C(=O)O[C@H]1C[C@@H](C)C=C2C=C[C@H](C)[C@H](CC[C@@H]3C[C@@H](O)CC(=O)O3)[C@H]21 [Simvastatin, simvastatin]
simvastatin concentration required for nearly maximal inhibition [1, 10]: 12 µM | reduction in the concentration of simvastatin ([5]; 12 μM with 7 μM itraconazole vs 48 μM alone): 4 fold | simvastatin concentration required for nearly maximal inhibition [5, 10]: 12 µM | reduction in simvastatin ([3]; SKMEL-28 cells, 6 μM with 7 μM itraconazole vs 48 μM alone): 8 fold | inhibition of cell proliferation ([3]; SKMEL-28 cells, 9 μM statin + 7 μM itraconazole): 61.8% | inhibition ([3]; SKMEL-28 cells, 9 μM statin, absence of itraconazole): 24.0% | inhibition at 12 µM ([4]; Homo sapiens, HCT-116, HCT116 cells, 12 μM simvastatin + 7 μM itraconazole): 92.7%

CC(C)N1CCN(c2ccc(OCC3COC(Cn4cncn4)(c4ccc(Cl)cc4Cl)O3)cc2)CC1 (stereo not shown) [terconazole]
inhibition at 19 µM ([4]; Homo sapiens, HCT-116, read-out: Percent inhibition of Alamar Blue Metabolism, atorvastatin 0 μM, terconazole 19 μM): 38.4% | inhibition at 38 µM ([4]; Homo sapiens, HCT-116, read-out: Percent inhibition of Alamar Blue Metabolism, atorvastatin 0 μM, terconazole 38 μM): 94.8%

Source: patent publication US20060241122A1, “Combination therapy for the treatment of neoplasms” (priority 2003, published 2006)
